Experiments:
Type in all cases: cell-based
TRPM2-ΔN/ΔC = target: T1, TRPM2-ΔN/ΔC (Homo sapiens, UniProt O94759); experiment: Whole-cell patch-clamp, truncation mutant; details: ADPR 500 μM
T1 construct: expressed in transfected cells; host or cells: HEK293T cells, transient transfection, GFP cDNA co-transfected as a separate marker
Experimental: (§1) Human embryonic kidney 293 (HEK293) cells with tetracycline-inducible expression of human TRPM2 channel (hTRPM2) were cultured in a mixed medium containing DMEM/ F-12 (Gibco, USA) and 10% fetal bovine serum (Gibco, USA) as well as blasticidin (50 μg/ml, Invivogen, USA) and zeocin (0.4 mg/ml, Invivogen, USA). The expression of hTRPM2 was induced by substituting blasticin and zeocin for tetracycline (1 μg/ml, Sigma, USA) 24-48 hours before use. TRPM2 channel mutants were transiently expressed in HEK293T cells by transfection with using Lipofectamine 3000. Briefly, HEK293T cells were transiently transfected with cDNAs encoding the mutant hTRPM2 channel. The cDNA for GFP was co-transfected as a marker for identification of the transfected cells for electrophysiological experiments 16-24 hours after transfection. […]
(§2) Coronal cortical slices were transferred into the recording chamber and continuously perfused at room temperature with ACSF oxygenated with 95% O2 and 5% CO2. […] For whole-cell or single channel recordings from transfected HEK-293T cells, the coverslips were placed in a culture dish (35 × 35 mm, Sorfa) containing HEPES based extracellular solution (ECS) and recorded by patch-clamp technique. […] Each coverslip was recorded only once with different drug exposures. […]

[1] = target: T2, hTRPM2 K928A/D1069A double mutant (Homo sapiens, UniProt O94759, D1069A/K928A); experiment: Whole-cell patch-clamp, bilirubin-binding cavity double mutant; details: intracellular ADPR 500 μM
T2 construct: expressed in transfected cells; host or cells: HEK293T cells, transient transfection, GFP cDNA co-transfected as a separate marker
T2 sequence (O94759 whole entry K928A/D1069A): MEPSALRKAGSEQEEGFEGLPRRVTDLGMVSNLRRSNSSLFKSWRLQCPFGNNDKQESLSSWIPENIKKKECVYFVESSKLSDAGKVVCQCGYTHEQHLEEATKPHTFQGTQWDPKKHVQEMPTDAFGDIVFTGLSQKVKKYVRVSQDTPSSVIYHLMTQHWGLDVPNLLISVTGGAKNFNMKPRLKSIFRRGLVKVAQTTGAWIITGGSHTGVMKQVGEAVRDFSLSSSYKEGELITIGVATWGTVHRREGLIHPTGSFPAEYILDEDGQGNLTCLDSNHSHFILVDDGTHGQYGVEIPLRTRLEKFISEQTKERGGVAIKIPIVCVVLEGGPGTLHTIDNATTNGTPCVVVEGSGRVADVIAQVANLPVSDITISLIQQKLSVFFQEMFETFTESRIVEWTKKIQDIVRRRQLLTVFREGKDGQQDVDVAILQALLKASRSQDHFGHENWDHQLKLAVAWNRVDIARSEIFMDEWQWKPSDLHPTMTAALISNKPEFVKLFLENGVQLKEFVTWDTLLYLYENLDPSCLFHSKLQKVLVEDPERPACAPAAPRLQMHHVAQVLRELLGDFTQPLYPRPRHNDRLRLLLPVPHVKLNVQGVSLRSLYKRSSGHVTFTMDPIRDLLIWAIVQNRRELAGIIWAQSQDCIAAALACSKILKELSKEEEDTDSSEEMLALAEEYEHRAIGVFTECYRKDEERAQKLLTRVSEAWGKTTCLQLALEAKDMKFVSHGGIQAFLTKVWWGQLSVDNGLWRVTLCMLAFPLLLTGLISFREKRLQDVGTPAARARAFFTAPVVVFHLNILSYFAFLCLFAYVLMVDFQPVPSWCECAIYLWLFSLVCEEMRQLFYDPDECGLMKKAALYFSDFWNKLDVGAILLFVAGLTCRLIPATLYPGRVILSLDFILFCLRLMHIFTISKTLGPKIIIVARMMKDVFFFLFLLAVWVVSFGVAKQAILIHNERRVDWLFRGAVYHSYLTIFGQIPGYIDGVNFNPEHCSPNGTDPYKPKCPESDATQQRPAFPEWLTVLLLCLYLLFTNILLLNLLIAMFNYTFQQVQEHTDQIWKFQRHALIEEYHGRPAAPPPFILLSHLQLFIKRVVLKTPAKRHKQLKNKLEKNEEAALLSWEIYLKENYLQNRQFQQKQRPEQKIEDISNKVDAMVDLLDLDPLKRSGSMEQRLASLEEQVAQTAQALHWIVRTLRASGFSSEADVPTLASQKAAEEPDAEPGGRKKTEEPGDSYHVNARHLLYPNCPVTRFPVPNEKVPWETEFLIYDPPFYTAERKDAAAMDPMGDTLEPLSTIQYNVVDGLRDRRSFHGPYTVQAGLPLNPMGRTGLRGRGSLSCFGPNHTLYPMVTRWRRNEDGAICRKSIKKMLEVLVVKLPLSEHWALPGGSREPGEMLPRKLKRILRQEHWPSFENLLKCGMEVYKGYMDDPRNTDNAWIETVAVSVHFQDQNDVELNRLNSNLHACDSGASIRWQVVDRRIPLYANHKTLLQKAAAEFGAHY
Experimental: as §1, §2

hTRPM2 R302A/R358A = target: T3, hTRPM2 R302A/R358A (Homo sapiens, UniProt O94759, R302A/R358A); experiment: Whole-cell patch-clamp, N-terminal ADPR-binding site mutant; details: ADPR
T3 construct: expressed in transfected cells; host or cells: HEK293T cells, transient transfection (Lipofectamine 3000), GFP cDNA co-transfected as a separate marker
T3 sequence (O94759 whole entry R302A/R358A): as the sequence (O94759 whole entry K928A/D1069A) above, with R302A, R358A, A928K, A1069D counted along it
Experimental: as §1, §2

T1 sequence (O94759 1-1449 isoform O94759-2): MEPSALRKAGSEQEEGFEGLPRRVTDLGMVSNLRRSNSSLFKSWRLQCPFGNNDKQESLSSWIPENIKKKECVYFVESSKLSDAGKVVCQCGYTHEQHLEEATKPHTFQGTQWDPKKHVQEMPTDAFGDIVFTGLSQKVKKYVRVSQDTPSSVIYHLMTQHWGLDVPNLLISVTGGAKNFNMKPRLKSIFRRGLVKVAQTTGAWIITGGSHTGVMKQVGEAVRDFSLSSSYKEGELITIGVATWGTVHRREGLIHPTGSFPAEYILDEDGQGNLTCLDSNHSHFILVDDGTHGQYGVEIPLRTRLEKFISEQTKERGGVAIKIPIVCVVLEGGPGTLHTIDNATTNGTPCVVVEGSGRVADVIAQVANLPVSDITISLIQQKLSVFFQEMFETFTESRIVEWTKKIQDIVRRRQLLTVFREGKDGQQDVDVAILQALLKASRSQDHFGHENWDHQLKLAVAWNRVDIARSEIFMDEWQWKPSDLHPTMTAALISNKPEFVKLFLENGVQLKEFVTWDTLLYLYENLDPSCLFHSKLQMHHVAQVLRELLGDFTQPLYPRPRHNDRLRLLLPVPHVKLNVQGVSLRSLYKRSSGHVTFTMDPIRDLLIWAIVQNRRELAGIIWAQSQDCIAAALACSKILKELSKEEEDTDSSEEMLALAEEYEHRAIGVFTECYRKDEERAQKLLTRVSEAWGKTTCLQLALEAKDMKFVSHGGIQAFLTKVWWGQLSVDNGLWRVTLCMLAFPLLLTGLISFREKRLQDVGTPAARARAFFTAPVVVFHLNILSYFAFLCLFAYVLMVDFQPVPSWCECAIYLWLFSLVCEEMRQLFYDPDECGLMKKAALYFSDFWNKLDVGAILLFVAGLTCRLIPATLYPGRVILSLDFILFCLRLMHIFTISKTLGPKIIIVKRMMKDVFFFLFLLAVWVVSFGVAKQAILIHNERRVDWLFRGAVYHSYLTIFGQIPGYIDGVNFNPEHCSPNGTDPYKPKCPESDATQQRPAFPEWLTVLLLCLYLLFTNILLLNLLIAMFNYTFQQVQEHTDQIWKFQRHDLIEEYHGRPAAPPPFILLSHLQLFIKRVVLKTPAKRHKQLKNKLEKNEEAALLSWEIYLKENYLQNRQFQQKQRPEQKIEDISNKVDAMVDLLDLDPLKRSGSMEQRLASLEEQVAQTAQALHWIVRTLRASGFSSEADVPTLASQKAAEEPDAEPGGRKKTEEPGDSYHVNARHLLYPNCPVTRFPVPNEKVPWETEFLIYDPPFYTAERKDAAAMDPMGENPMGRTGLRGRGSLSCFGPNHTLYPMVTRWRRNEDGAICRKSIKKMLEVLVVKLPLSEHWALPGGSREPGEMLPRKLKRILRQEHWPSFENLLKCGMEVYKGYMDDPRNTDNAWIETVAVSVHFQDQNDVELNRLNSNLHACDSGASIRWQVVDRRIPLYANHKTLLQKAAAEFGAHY

Compound: Nc1ncnc2c1ncn2C1O[C@H](COP(=O)([O-])OP(=O)(O)OC[C@H]2OC(O)[C@H](O)[C@@H]2O)[C@@H](O)[C@H]1O.O.O.[Na+] (stereo partly drawn) [ADPR, Adenosine 5ʹ-diphosphoribose sodium salt]
- activation of mutant TRPM2 currents (TRPM2-ΔN/ΔC): eliminated the activation
- activation of mutant TRPM2 currents [1]: perfectly retained their agonist capacity
- activation of mutant TRPM2 currents (hTRPM2 R302A/R358A): failed to evoke currents
